Experimental findings from EP0471516A1, “Tricyclic heterocyclic derivatives” (IMPERIAL CHEMICAL INDUSTRIES PLC, priority 1990, dated 1992) are described below.

pIC50: −log10 of the molar value.

The subject of one assay is topoisomerase-II. Description: Test (a): in vitro topoisomerase-II interaction assay, DNA fragmentation of labelled pUC18 plasmid. The class given is biochemical, human. To be noted: test compound at 100 µM; for activity in Test (a): DNA fragmentation with topoisomerase-II from HeLa cells. Here is the method:
(a) An in vitro assay which determines the ability of a test compound to interact with the enzyme topoisomerase-II, obtained in partially purified form from human HeLa cervical carcinoma cells grown in cell culture. Aliquots of the topoisomerase-II so obtained are added to a mixture of plasmid DNA [0.5 ng of a linearised pUC18 plasmid labelled with [³²P]-ATP], test compound (dissolved in dimethylsulphoxide) and a conventional buffer solution comprising essential salts, bovine serum albumin, ATP, EDTA and 2-mercaptoethanol. The mixture is incubated at 30°C for 10 minutes. Sodium dodecylsulphate and proteinase K are added in turn to give final concentrations of 1% w/v and 2 mg/ml respectively and the mixture is heated to 45°C to effect proteolysis. The resultant mixture is analysed by electrophoresis on a polyacrylamide gel at pH 8.3 and 450 volts for one hour. Thereafter the gel is fixed, dried and autoradiogrammed to determine the extent of DNA fragmentation.

The subject of assay [1] is small-cell lung cancer cell line N417A. Description: Test (b): growth inhibition of N417A cells in culture, tetrazolium salt method. The assay is classed as cell-based. To be noted: read-out: IC₅₀. The text has this: (b) Any assay which determines the ability of a test compound to inhibit the growth of the small-cell lung cancer cell line N417A in cell culture. The test is similar to that described by T. Mosmann (J. Immunol. Meths., 1983, 65, 55-63) but using the tetrazolium salt method of J. Carmichael et al. (J. Cancer Res., 1987, 47, 936-942) to assess the reductive capacity of any viable cells.

`COc1cc(Cn2c3ccccc3c(=O)c3ccc(S(=O)(=O)CCN(C)C)cc32)cc(OC)c1O` [3-(2-dimethylaminoethylsulphonyl)-10-(4-hydroxy-3,5-dimethoxybenzyl)-9,10-dihydroacridin-9-one]: in the assay on topoisomerase-II, the “etoposide concentration giving activity equivalent to the test compound in Test (a)” value came to 100 µM and the “activity in Test (a)” value is reported as “significant activity”. Also, in assay [1], the pIC50 is 6.10.
For `COc1cc(Cn2c3ccccc3c(=O)c3cccnc32)cc(OC)c1O` [10-(4-hydroxy-3,5-dimethoxybenzyl)-5,10-dihydrobenzo[b][1,8]naphthyridin-5-one] the same measures were 50 µM, “significant activity” and 5.43.
For `COc1cc(Cn2c3ccccc3c(=O)c3ccc(Cl)cc32)cc(OC)c1O` [3-chloro-10-(4-hydroxy-3,5-dimethoxybenzyl)-9,10-dihydroacridin-9-one], in the assay with topoisomerase-II, the “etoposide concentration giving activity equivalent to the test compound in Test (a)” value came out at 25 µM and the “activity in Test (a)” value was “significant activity”. The pIC50 in assay [1] was 6.40.
